# According to article PMC10369496, “Cu(II) and Zn(II) Complexes of New 8-Hydroxyquinoline Schiff Bases: Investigating Their Structure, Solution Speciation, and Anticancer Potential” (Inorganic Chemistry, 2023):
# “Also recorded” adds a separate entry of the source. Where two headings read alike, the source gives them in different places.
# Columns and labels:
# [1] = target: T1, bovine serum albumin (BSA) (Bos taurus, UniProt P02769); assay: Fluorescence quenching titration of BSA; format: binding
# T1 construct: bovine serum albumin (BSA) stock solutions of lyophilized protein
# T1 sequence (P02769 25-607): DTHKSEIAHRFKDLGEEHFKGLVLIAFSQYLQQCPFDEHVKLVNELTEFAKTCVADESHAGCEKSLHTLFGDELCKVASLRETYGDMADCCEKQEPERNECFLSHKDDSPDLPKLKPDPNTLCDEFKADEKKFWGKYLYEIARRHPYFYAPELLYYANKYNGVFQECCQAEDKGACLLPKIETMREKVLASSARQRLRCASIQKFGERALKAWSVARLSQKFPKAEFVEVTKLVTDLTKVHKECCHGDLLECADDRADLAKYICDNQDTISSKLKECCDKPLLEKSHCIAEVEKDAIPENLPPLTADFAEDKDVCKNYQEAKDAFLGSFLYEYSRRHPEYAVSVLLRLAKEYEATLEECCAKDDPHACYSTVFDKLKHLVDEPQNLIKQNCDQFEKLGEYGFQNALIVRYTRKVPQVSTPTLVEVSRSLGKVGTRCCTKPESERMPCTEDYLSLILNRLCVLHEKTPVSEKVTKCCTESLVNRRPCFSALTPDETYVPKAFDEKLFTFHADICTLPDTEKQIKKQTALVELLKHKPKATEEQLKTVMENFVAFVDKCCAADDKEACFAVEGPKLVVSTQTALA
# Protocol: The steady-state fluorescence emission spectra of a solution of 0.5–1.0 μM BSA (in HEPES buffer) were recorded between 310 and 500 nm with λexc = 295 nm after additions of the complexes’ solutions directly to the cuvette (optical path of 1.0 cm). The UV–vis spectrum of each sample was used to make corrections and minimize the inner filter and reabsorption interferences.[22] Solutions with the same concentration of complex and no BSA were recorded and used as blank spectra.
# Data were analyzed by fitting a second-order equation, which accounts for both static and dynamic quenching [drawing 2] 2 where I0 and I are the fluorescence intensities in the absence and presence of quencher (Q), and KS and KD are the static and dynamic quenching constants, respectively.
# The Stern–Volmer equation was used for low quencher concentrations to determine the Stern–Volmer quenching constant (KSV), a measure of the quenching strength [drawing 3] 3
# [2] = tested on: Human malignant melanoma A375 cells; assay: Antiproliferative activity in A375 cells, CellTiter-Glo 3D luminescent method; format: cell-based
# Protocol: (§1) Cell culture media and antibiotics were obtained from Gibco (Thermo Fisher Scientific). Human malignant melanoma A375 cells (ATCC CRL-1619TM) and human keratinocytes HaCaT (CLS 300493) were cultured in DMEM-Glutamax supplemented with 10% fetal bovine serum (FBS), hereafter designated as complete medium. For human keratinocytes, 100 IU/mL of penicillin and 100 μg/mL of streptomycin (Gibco, Thermo Fisher Scientific) were also used. The cell lines were kept at 37 °C with a 5% CO2 atmosphere. The maintenance of cell cultures was performed every 2–3 days until the cells reached a confluency of about 80%.
# The CellTiter-Glo 3D kit (Promega) was used to assess the viability of the A375 cells in the presence or absence (negative control) of increasing concentrations of the free ligands and complexes. The kit detects adenosine triphosphate, which is proportional to the number of viable cells, therefore allowing the assessment of cell proliferation. First, A375 cells were plated at a concentration of 5 × 10^4 cells/mL in 96-well plates (200 μL/well) and cultured for 24 h in the culture conditions described above. Then, cells were incubated with the free ligands (1–100 μM), Zn(II) complexes (1 to 80 μM), and Cu(II) complexes (1–20 μM) in 96-well plates. After an incubation period of 48 h, 100 μL of each well was discarded. Then, 40 μL of CellTiter-Glo 3D reagent was added into each well and the contents were mixed vigorously for 15 min to induce cell lysis at room temperature. Finally, the luminescence was measured using a Varioskan Lux multimode plate reader (Thermo Scientific). Values presented are mean ± standard deviation (SD) of two independent biological experiments with 4 technical replicates per condition.
# (§2) GraphPad Prism8 (GraphPad Software, San Diego, CA) was used to analyze cell proliferation, and values were plotted and fit a standard log dose–response curve to generate IC50 values.
# [3] = tested on: human keratinocytes HaCaT; assay: MTT assay in nontumorigenic HaCaT cells; format: cell-based; details: for IC50: HaCaT, 48 h incubation, MTT colorimetric method; for Selectivity index (SI): IC50 HaCaT/IC50 A375
# Protocol: as §1
# The MTT assay was used to assess cell viability in the presence of increasing concentrations of selected compounds. Briefly, HaCaT cells were plated at a concentration of 5 × 10^4 cells/mL in 96-well plates (200 μL/well) and cultured for 24 h in the culture conditions described above. Then, cells were incubated with free ligands and metal complexes at concentrations ranging from 5 to 30 μM. Negative controls were cells maintained in complete culture medium. The culture medium was discarded after 48 h, cells were washed with PBS (2 times), and then 50 μL of MTT at 0.5 mg/mL in incomplete medium was added to all wells. After 2–3 h of incubation period at 37 °C, 100 μL of DMSO was added to each well to solubilize the formazan crystals, and absorbance was measured at 570 nm using a microplate reader Model 680 (Bio-Rad, CA). Two independent experiments were carried out, with six replicates per condition.
# as §2
# [4] = Thermodynamic solubility in water at pH 7.40; format: physicochemical; details: pH 7.40, 10 mM HEPES, 37 °C, 24 h incubation
# Protocol: Thermodynamic solubility (S) of the free ligands and complexes was determined for the saturated solutions in water at pH 7.40 in 10 mM HEPES at 37.0 ± 0.2 °C. The concentration of the compounds was determined by UV–vis spectrophotometry using stock solutions with known concentrations dissolved in 100% DMSO, 50%, and 25% (v/v) DMSO/buffered aqueous solutions for the calibration.
# [5] = Distribution coefficient, shake-flask n-octanol/buffered aqueous solution pH 7.40; format: physicochemical; details: n-octanol/water partitioning, pH 7.40, 25 °C; for logD at 3 h: n-octanol/buffered aqueous solution, pH 7.4, read-out: log D7.4
# Protocol: The distribution coefficients (D7.4) of the compounds were determined by the shake-flask method in n-octanol/buffered aqueous solution at pH 7.40 (25.0 ± 0.2 °C). The ligand precursors and the complexes were dissolved in 10 mM HEPES presaturated with n-octanol. The aqueous solution and n-octanol (1:1 ratio) were gently mixed with a 360° vertical rotation (∼20 rpm) for 3 h; then, the samples were centrifuged at 3000 rpm for 5 min. Two phases were separated, and their UV–vis spectra were recorded. The D7.4 value was calculated as follows [drawing 1] 1
# [6] = Stability in aqueous HEPES buffer (5% DMSO) by UV–vis; format: physicochemical; details: HEPES 10 mM pH 7.4 with 5% (v/v) DMSO; 100–135 μM; 24 h
# Protocol: Stock solutions of each complex were freshly prepared in DMSO and diluted with HEPES buffer (10 mM, pH 7.4), ensuring that the organic solvent content was less than 5% (v/v). The samples were monitored by UV–vis absorption spectrophotometry for 6 consecutive hours, and a final measurement was done after 24 h.
# [7] = Stability by 1H NMR in DMSO-d6 or 30% DMSO-d6/H2O; format: physicochemical; details: 1 mM
# Protocol: A Bruker Avance III HD Ascend 500 Plus instrument (Billerica, MA) was used for NMR spectroscopic titrations and time-dependent studies applying a WATERGATE water suppression pulse scheme in the presence of 10% (v/v) D2O/H2O, and the sodium trimethylsilylpropanesulfonate (DSS) standard was added to samples as the internal reference. ^1H NMR titrations were carried out for the ligand precursors in the presence of 0.1 M KCl. For free ligands and complexes’ stability measurements, ^1H NMR spectra were recorded in DMSO-d6 or 30% (v/v) DMSO-d6/H2O.
# A375 cells = assay: Guava ViaCount assay by flow cytometry; format: cell-based, human; details: A375, 48 h; Zn(L2)2 at 15 μM, Cu2(L2)4 at 12 μM
# Protocol: For the Guava ViaCount assay, A375 cells were plated at a concentration of 8 × 10^4 cells/mL in 24-well plates (1 mL/well) and cultured for 24 h in the culture conditions described above.[23] Cells were then incubated with Zn(L2)2 and Cu2(L2)4 at concentrations of 15 and 12 μM, respectively. The positive control, dacarbazine (DTIC), was tested at 70 μM. Cells in the presence of complete culture medium constituted the negative control group. After an incubation period of 48 h, cell culture supernatants were collected, and adherent cells were detached using TrypLEExpress (Invitrogen). Detached cells were then added to supernatants, and the wells were washed using PBS with 2% FBS to recover any remaining cells. The recovered suspension was centrifuged for 5 min at 700 g. The supernatants were discarded, and cells were suspended in PBS with 2% FBS. Then, on a 96-well plate, 20 μL of cell suspension was incubated with 180 μL of Guava ViaCount reagent (Merck Millipore, Darmstadt, Germany) for 5 min at r.t. Using a Guava EasyCyte 5HT Flow cytometer (Guava Technologies, Inc., Hayward, CA), data were collected and analyzed with the ViaCount software module with an acquisition of 10,000 events per sample. GraphPad Prism8 was used to analyze cell proliferation (GraphPad Software, San Diego, CA). One experiment was carried out, with three replicates per condition.
# [8] = Overall stability (formation) constants of Cu(II) complexes by UV–vis spectrophotometric titrations; format: physicochemical; details: I = 0.1 M KCl, t = 25.0 °C; for log β (CuL2): bis-ligand Cu(II) complex; for log β (CuL): mono-ligand Cu(II) complex
# Protocol: (§3) The UV–vis titrations were performed with a 0.10 M carbonate-free KOH solution using a Metrohm 665 Dosimat buret and an Orion 710A pH-meter equipped with a Metrohm combined electrode (type 6.0234.100). […] The average water ionization constant (pKw) is 13.76 ± 0.05. The path length was 1 cm, and the temperature was 25.0 ± 0.1 °C. An ionic strength of 0.10 M KCl was used to keep the activity coefficients constant. The samples were deoxygenated by bubbling argon through the system for 10 min. Spectrophotometric titrations were carried out using an Agilent Cary 8454 diode array spectrophotometer (Santa Clara, CA) in water on samples containing the ligands at 60 μM, in the pH range from 1.5 to 11.5 in the absence or in the presence of 1, 0.5, or 0.25 equiv of Cu(II) and Zn(II) ions, using 10.00 mL of sample volumes. Proton dissociation constants (Ka) of the ligand precursors, as well as stoichiometry and overall stability constants (β) of the metal complexes, were calculated by the computer program PSEQUAD.[20]
# [9] = Proton dissociation constants by UV–vis spectrophotometric titrations; format: physicochemical; details: water with 0.10 M KCl, I = 0.1 M KCl, t = 25.0 °C
# Protocol: as §3
# [10] = Overall stability (formation) constants of Zn(II) complexes by UV–vis spectrophotometric titrations; format: physicochemical; details: I = 0.1 M KCl, t = 25.0 °C; for log β (ZnL2): bis-ligand Zn(II) complex; for log β (ZnL): mono-ligand Zn(II) complex
# Protocol: as §3
# melanoma cell line A375 = tested on: melanoma cell line A375; set-up: method as in doi:10.1016/j.phytol.2021.07.008; details: A375, MTT method; cited from earlier work
# [11] = quinolinium nitrogen, read-out: pKa (NqH+)
# [12] = Homo sapiens, A-375, A375, 48 h incubation
SMILES,"IC50 ([2]; A375, 48 h incubation) [µM]",IC50 [3] [µM],Selectivity index (SI) [3],Thermodynamic solubility S7.4 [4] [µM],log D7.4 [5],stability in aqueous media [6],log β (CuL2) [8],log β (CuL) [8],"pKa ([9]; phenol OH, read-out: pKa (OH))","pKa [9, 11]","IC50 [2, 12] [µM]",IC50 ([3]; Homo sapiens) [µM],log β (ZnL2) [10],log β (ZnL) [10],logD at 3 h [5],other results
[Cu+2].[O-]c1cccc2ccc(/C=N/CCCN3CCOCC3)nc12.[O-]c1cccc2ccc(/C=N/CCCN3CCOCC3)nc12 [Cu(L3)2],6.7 ± 0.2,8.1 ± 0.2,1.2,1821,>1.5,–,–,–,–,–,–,–,–,–,–,"Stern–Volmer quenching constant KSV ([1]; fit at low quencher concentrations, HEPES pH 7.4): (2.20 ± 0.07) × 10^5 M^–1; % quenching ([1]; molar ratio complex:BSA = 10, λexc = 295 nm): 48%"
[O-]c1cccc2ccc(/C=N/CCCN3CCOCC3)nc12.[O-]c1cccc2ccc(/C=N/CCCN3CCOCC3)nc12.[Zn+2] [Zn(L3)2],9.3 ± 1.1,26.3 ± 0.7,2.8,87,>1.5,suggests hydrolysis; also recorded: significant hydrolysis,–,–,–,–,–,–,–,–,–,–
[O-]c1cccc2ccc(/C=N/CCN3CCCCC3)nc12.[O-]c1cccc2ccc(/C=N/CCN3CCCCC3)nc12.[Zn+2] [Zn(L1)2],9.1 ± 1.5,22.3 ± 0.7,2.5,694,>1.5,did not show signs of decomposition,–,–,–,–,–,–,–,–,–,period the 1H NMR spectra remained unchanged [7]: 8 days
[O-]c1cccc2ccc(/C=N/CCN3CCOCC3)nc12.[O-]c1cccc2ccc(/C=N/CCN3CCOCC3)nc12.[Zn+2] [Zn(L2)2],10.3 ± 1.6,24.4 ± 0.6,2.4,1674,+0.86 ± 0.09,did not show signs of decomposition,–,–,–,–,–,–,–,–,–,percentage of dead and apoptotic cells (A375 cells): 10%
Oc1cccc2ccc(/C=N/CCN3CCCCC3)nc12 [L1],–,–,–,–,–,–,15.60 ± 0.02,8.36 ± 0.01,8.77 ± 0.03,2.8 ± 0.03,15.2 ± 0.2,> 30,14.42 ± 0.01,6.90 ± 0.03,0.63,–
Oc1cccc2ccc(/C=N/CCCN3CCOCC3)nc12 [L3],–,–,–,–,–,–,15.57 ± 0.01,8.34 ± 0.01,8.78 ± 0.03,2.77 ± 0.03,25.8 ± 0.3,> 30,13.68 ± 0.04,6.87 ± 0.01,0.76,–
N.N.[Cl][Pt][Cl] [Cisplatin],–,–,–,–,–,–,–,–,–,–,–,–,–,–,–,IC50 (melanoma cell line A375): 10.9 ± 1.3 µM
Oc1cccc2ccc(/C=N/CCN3CCOCC3)nc12 [L2],–,–,–,–,–,–,15.77 ± 0.03,7.98 ± 0.02,8.84 ± 0.03,2.83 ± 0.03,15.9 ± 0.1,> 30,14.32 ± 0.02,6.86 ± 0.04,0.64,–
